Assay results published in US20210093619A1, “Chemical Compounds as ATF-4 Pathway Inhibitors” (GlaxoSmithKline Intellectual Property Development Limited, priority 2017, published 2021).

System: ATF4 pathway
Experiment: ATF4 Cell Based Assay (SH-SY5Y-ATF4-NanoLuc reporter, Thapsigargin challenge)
Conditions: SH-SY5Y-ATF4-NanoLuc cells, Thapsigargin 14-18 hours; average of a set of two or more experimental runs; read-out: average ATF4 pathway inhibitory activity (IC50)
Source text: The ATF4 reporter assay measures the effect of Thapsigargin induced cellular stress on ATF4 expression. For this reporter assay, a stable cell line was created by transfecting SH-SY5Y cells with a plasmid containing the NanoLuc® luciferase gene fused to the 5′-UTR of ATF4, under the control of the CMV promoter. The ATF4 5′-UTR contains two open reading frames which mediate the cellular stress-dependent translation of the reporter gene. Clones stably expressing the reporter construct were isolated and selected based on the luminescence response to thapsigargin and inhibition of this signal by test compounds. Briefly, SH-SY5Y-ATF4-NanoLuc cells were challenged with Thapsigargin for 14-18 hours to determine the stress effect with or without test compounds.
Cells were propagated in growth media consisting of 90% DMEM F12 (InVitrogen #11320-033), 10% Fetal Bovine Serum (Gibco #10438-026), 5mM Glutamax (Gibco #35050-061), 5 mM Hepes, (Gibco #15630-080), and 0.5 mg/ml Geneticin (Gibco #10131-027). Cells were prepared for the assay by removing all media from cells, washing the plated cells with phosphate buffered saline, and detached by adding a solution comprised of 10% Tryple express solution (InVitrogen12604-021) and 90% enzyme-free cell dissociation buffer HANKS base (Gibco 13150-016). The trypsin was deactivated by adding assay media comprised of 90% phenol-red free DMEM F12 (InVitrogen, 11039), 10% Fetal Bovine Serum (Gibco #10438-026),(5 mM Glutamax (Gibco #35050-061), 5 mM Hepes, (Gibco #15630-080), and 0.5 mg/ml Geneticin (Gibco #10131-027). Suspended cells were spun down at 300 g for 5 min, the supernatant was removed and the cell pellet was suspended in warm media (30-37° C.) comprised as above but without 10% Fetal Bovine Serum to a concentration of 1 e6 cells/ml.
Assay plates were prepared by adding 250 nL of compound stock solution in 100% DMSO to each well, followed by dispensing 20 microliters/well cell suspension to deliver 15-20 k cell/well. Cells were incubated for 1 hour at 37° C. Then, 5 μL of 1.5 μM or 1 μM of Thapsigargin (final concentration: 200-300 nM) was added to each well of cells. Assay plates containing cells were incubated for 14-18 hours at 37° C.
The measurement of luciferase produced by the ATF4 constructs was measured as follows. Aliquots of the Nano-Glo reagent (Nano-Glo® Luciferase Assay Substrate, Promega, N113, Nano-Glo® Luciferase Assay Buffer, Promega, N112 (parts of Nano-Glo® Luciferase Assay System, N1150) were brought to room temperature, the substrate and buffer were mixed according to manufacturer's instructions. The cell plates were equilibrated to room temperature. 25 microliters/well of the mixed Nano-Glo reagent were dispensed into assay wells and pulse spun to settle contents and the plate was sealed with film. The plates were incubated at room temperature for 1 hour before detecting luminescence on an EnVision® plate reader.

| Structure (SMILES) | IC50 [µM] |
| --- | --- |
| O=C(COc1ccc(Cl)cc1)NC12CC(NC3CN(c4ccc(Cl)cc4)C3)(C1)C2 [Example 3a, 2-(4-chlorophenoxy)-N-(3-((1-(4-chlorophenyl)azetidin-3-yl)amino)bicyclo[1.1.1]pentan-1-yl)acetamide] | 0.0036 to 0.0136 |
| O=C(COc1ccc(Cl)cc1)NC12CC(NC(=O)c3ccc(Cl)cc3)(C1)C2 [Example XII, 4-chloro-N-(3-(2-(4-chlorophenoxy)acetamido)bicyclo[1.1.1]pentan-1-yl)benzamide] | 0.0252 |
| O=C(COc1ccc(Cl)c(C(F)(F)F)c1)NC12CC(N3CCC(Oc4ccc(Cl)cc4)C3)(C1)C2 (centres unmarked) [Example 6k, 2-(4-chloro-3-(trifluoromethyl)phenoxy)-N-(3-(3-(4-chlorophenoxy)pyrrolidin-1-yl)bicyclo[1.1.1]pentan-1-yl)acetamide] | 0.0246 |
| COC(=O)CN(CCOc1ccc(Cl)cc1)C12CC(NC(=O)COc3ccc(Cl)cc3)(C1)C2 [Example XVI, methyl N-(3-(2-(4-chlorophenoxy)acetamido)bicyclo[1.1.1]pentan-1-yl)-N-(2-(4-chlorophenoxy)ethyl)glycinate] | 0.013 |
| O=C(COc1ccc(F)cc1)NC12CC(N3CCC(Oc4ccc(Cl)cc4)C3)(C1)C2 (single isomer, unassigned) [Example 6e, N-(3-(3-(4-chlorophenoxy)pyrrolidin-1-yl)bicyclo[1.1.1]pentan-1-yl)-2-(4-fluorophenoxy)acetamide] | 0.02 |
| COc1ccc(N2CCN(C34CC(NC(=O)COc5ccc(Cl)cc5)(C3)C4)C2=O)cc1 [Example 1t, 2-(4-chlorophenoxy)-N-(3-(3-(4-methoxyphenyl)-2-oxoimidazolidin-1-yl)bicyclo[1.1.1]pentan-1-yl)acetamide] | 0.0517 |
| O=C(COc1ccc(Cl)cc1)NC12CC(NC(=O)COc3ccc4c(c3)CCCO4)(C1)C2 [Example 4d, 2-(4-chlorophenoxy)-N-(3-(2-(chroman-6-yloxy)acetamido)bicyclo[1.1.1]pentan-1-yl)acetamide] | 0.0122 |
| O=C(COc1ccc(Cl)cc1)NC12CC(NCCNc3ccc(Cl)cc3)(C1)C2 [Example XXI, 2-(4-chlorophenoxy)-N-(3-((2-((4-chlorophenyl)amino)ethyl)amino)bicyclo[1.1.1]pentan-1-yl)acetamide] | 0.033 |
| O=C(COc1ccc(Cl)cc1)NC12CC(N3CC(Oc4ccc(Cl)cc4)C3)(C1)C2 [Example 3b, 2-(4-chlorophenoxy)-N-(3-(3-(4-chlorophenoxy)azetidin-1-yl)bicyclo[1.1.1]pentan-1-yl)acetamide] | 0.0036 to 0.0136 |
| O=C(COc1ccc(Cl)cc1)NC12CC(N3CCN(c4ccc(Cl)cc4F)C3=O)(C1)C2 [Example 1v, N-(3-(3-(4-chloro-2-fluorophenyl)-2-oxoimidazolidin-1-yl)bicyclo[1.1.1]pentan-1-yl)-2-(4-chlorophenoxy)acetamide] | 0.0232 |
| Cc1ccc(OCC(=O)NC23CC(NC(=O)COc4ccc(Cl)cc4)(C2)C3)cn1 [Example IX, 2-(4-chlorophenoxy)-N-(3-(2-((6-methylpyridin-3-yl)oxy)acetamido)bicyclo[1.1.1]pentan-1-yl)acetamide] | 0.3 |
| O=C(COc1cccc(Cl)c1)NC12CC(N3CCN(c4ccc(Cl)cc4)C3=O)(C1)C2 [Example 1g, 2-(3-chlorophenoxy)-N-(3-(3-(4-chlorophenyl)-2-oxoimidazolidin-1-yl)bicyclo[1.1.1]pentan-1-yl)acetamide] | 0.017 |
| O=C(COc1ccc(Cl)cn1)NC12CC(N3CCN(c4ccc(Cl)cc4)C3=O)(C1)C2 [Example 1k, N-(3-(3-(4-chlorophenyl)-2-oxoimidazolidin-1-yl)bicyclo[1.1.1]pentan-1-yl)-2-((5-chloropyridin-2-yl)oxy)acetamide] | 0.034 |
| O=C(COc1ccc(F)c(Cl)c1)NC12CC(N3CCN(c4ccc(Cl)cc4)C3=O)(C1)C2 [Example 1o, 2-(3-chloro-4-fluorophenoxy)-N-(3-(3-(4-chlorophenyl)-2-oxoimidazolidin-1-yl)bicyclo[1.1.1]pentan-1-yl)acetamide] | 0.0103 |

More lines, now with the values ahead:

| IC50 [µM] | Structure (SMILES) |
| --- | --- |
| 0.0018 | O=C(COc1ccc(Cl)cc1)NC12CC(N3CCN(c4ccc(C(F)(F)F)cc4)C3=O)(C1)C2 [Example 1r, 2-(4-chlorophenoxy)-N-(3-(2-oxo-3-(4-(trifluoromethyl)phenyl)imidazolidin-1-yl)bicyclo[1.1.1]pentan-1-yl)acetamide] |
| 0.0006 | O=C(COc1ccc(Cl)c(F)c1)NC12CC(N3CCN(c4ccc(Cl)cc4)C3=O)(C1)C2 [Example 1m, 2-(4-chloro-3-fluorophenoxy)-N-(3-(3-(4-chlorophenyl)-2-oxoimidazolidin-1-yl)bicyclo[1.1.1]pentan-1-yl)acetamide] |
| 0.0011 | O=C(COc1ccc(Cl)c(F)c1)NC12CC(N3CCC(Oc4ccc(Cl)cc4)C3)(C1)C2 (centres unmarked) [Example 6q, 2-(4-chloro-3-fluorophenoxy)-N-(3-(3-(4-chlorophenoxy)pyrrolidin-1-yl)bicyclo[1.1.1]pentan-1-yl)acetamide] |
| 0.0057 | O=C(COc1ccc(Cl)c(F)c1)NC12CC(N3CCC(Oc4ccc(Cl)cc4)C3)(C1)C2 (single isomer, unassigned) [Example 6o, 2-(4-chloro-3-fluorophenoxy)-N-(3-(3-(4-chlorophenoxy)pyrrolidin-1-yl)bicyclo[1.1.1]pentan-1-yl)acetamide] |
| 0.0016 | O=C(COc1ccc(Cl)c(C(F)(F)F)c1)NC12CC(N3CCN(c4ccc(Cl)cc4)C3=O)(C1)C2 [Example 1l, 2-(4-chloro-3-(trifluoromethyl)phenoxy)-N-(3-(3-(4-chlorophenyl)-2-oxoimidazolidin-1-yl)bicyclo[1.1.1]pentan-1-yl)acetamide] |
| 0.00889 | O=C(COc1ccc(Cl)cc1)NC12CCC(NC(=O)COc3ccc(Cl)nc3)(CC1)CC2 [Example III, 2-(4-chlorophenoxy)-N-(4-(2-((6-chloropyridin-3-yl)oxy)acetamido)bicyclo[2.2.2]octan-1-yl)acetamide] |
| 0.0041 | O=C(COc1ccc(Cl)cc1)NC12CC(NC(=O)Cc3ccc(Cl)cc3)(C1)C2 [Example VI, 2-(4-chlorophenoxy)-N-(3-(2-(4-chlorophenyl)acetamido)bicyclo[1.1.1]pentan-1-yl)acetamide] |
| 0.0051 | O=C(COc1ccc(Cl)cc1)NC12CC(N3CCC(Oc4ccc(Cl)cc4)CC3)(C1)C2 [Example 8a, 2-(4-chlorophenoxy)-N-(3-(4-(4-chlorophenoxy)piperidin-1-yl)bicyclo[1.1.1]pentan-1-yl)acetamide] |
| 0.0073 | O=C(COc1ccc(Cl)cc1)NC12CC(N3CCC(Oc4ccc(Cl)cc4)C3)(C1)C2 (centres unmarked) [XXIV and 6a] |
| 0.0099 | O=C(COc1ccc(Cl)cc1)NC12CC(N3CCC(Oc4ccc(Cl)c(F)c4)C3)(C1)C2 (single isomer, unassigned) [Example 6v, N-(3-(3-(4-chloro-3-fluorophenoxy)pyrrolidin-1-yl)bicyclo[1.1.1]pentan-1-yl)-2-(4-chlorophenoxy)acetamide] |
| 0.0069 | O=C(COc1ccc(C(F)(F)F)cc1)NC12CC(N3CCC(Oc4ccc(Cl)cc4)C3)(C1)C2 (centres unmarked) [Example 6i, N-(3-(3-(4-chlorophenoxy)pyrrolidin-1-yl)bicyclo[1.1.1]pentan-1-yl)-2-(4-(trifluoromethyl)phenoxy)acetamide] |
| 0.0067 | O=C(COc1ccc(Cl)cc1)NC12CC(N3CCC(Oc4ccc(Cl)cc4)C3)(C1)C2 (stereo in doubt) [Example 6c, (R)-2-(4-chlorophenoxy)-N-(3-(3-(4-chlorophenoxy)pyrrolidin-1-yl)bicyclo[1.1.1]pentan-1-yl)acetamide] |
